Measured values reported in patent US20250333397A1 (REMIX THERAPEUTICS INC., priority 2021, published 2025).
Read-outs that look alike come from different tables or passages of the source.

Assays:
Type in all cases: cell-based, human
[1] = test system: HTT mRNA; assay: RT-qPCR splicing assay, HTT canonical (CJ) and alternative (AJ) junction mRNA; conditions: Homo sapiens; for AC50: read-out: HTT AJ (AC50, increase in AJ mRNA)
How it was run: (§1)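 A673 or K562 cells were treated 24 h at 37 °C with an 11-point 3-fold compound dilution series, top dose 10 uM final, DMSO ≤0.25%. Lysates went to one-step RT-qPCR for canonical (CJ) and alternative-exon (AJ) junctions; ΔCt vs GAPDH, GUSB or PPIA, normalized to DMSO, as 2^(-ΔΔCt).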

[2] = test system: MYB mRNA; assay: RT-qPCR splicing assay, MYB canonical (CJ) and alternative (AJ) junction mRNA; conditions: Homo sapiens; for AC50: read-out: MYB AJ (AC50, increase in AJ mRNA)
How it was run: as §1

[3] = test system: SMN2 mRNA; assay: RT-qPCR splicing assay panel, SMN2 canonical junction (CJ) mRNA; conditions: Homo sapiens
How it was run: as §1

[4] = test system: Target C mRNA; assay: RT-qPCR splicing assay panel, Target C canonical junction (CJ) mRNA; conditions: Homo sapiens
How it was run: as §1

[5] = 24 h, Table 3A, A673 or K562 cells, 24 h treatment
[6] = 24 h, Table 3A, A673 or K562 cells, 24 h treatment, read-out: HTT CJ (IC50, decrease in CJ mRNA)
[7] = canonical junction (CJ) mRNA, RT-qPCR panel, Table 4A, read-out: HTT, decrease in CJ mRNA levels, IC50
[8] = 24 h, Table 3A, A673 or K562 cells, 24 h treatment, read-out: MYB CJ (IC50, decrease in CJ mRNA)
[9] = canonical junction (CJ) mRNA, RT-qPCR panel, Table 4A, read-out: MYB, decrease in CJ mRNA levels, IC50
[10] = canonical junction (CJ) mRNA, RT-qPCR panel, Table 4A, read-out: SMN2, decrease in CJ mRNA levels, IC50
[11] = canonical junction (CJ) mRNA, RT-qPCR panel, Table 4A, read-out: Target C, decrease in CJ mRNA levels, IC50
[12] = 24 h, Table 3B, A673 or K562 cells, 24 h treatment
[13] = 24 h, Table 3B, A673 or K562 cells, 24 h treatment, read-out: HTT CJ (IC50, decrease in CJ mRNA)
[14] = Table 4B, gene panel, read-out: HTT (IC50, decrease in CJ mRNA levels)
[15] = 24 h, Table 3B, A673 or K562 cells, 24 h treatment, read-out: MYB CJ (IC50, decrease in CJ mRNA)
[16] = Table 4B, gene panel, read-out: MYB (IC50, decrease in CJ mRNA levels)
[17] = Table 4B, gene panel, read-out: SMN2 (IC50, decrease in CJ mRNA levels)
[18] = Table 4B, gene panel, read-out: Target C (IC50, decrease in CJ mRNA levels)

Cc1nnc(-c2cc(O)c(-c3ccc(N4CC[C@@H](NCC5CC5)C4)nn3)cc2F)s1 [Compound 402]
AC50 [1, 5]: 100 to 1000 nM | IC50 [1, 6]: 100 to 1000 nM | IC50 [1, 7]: 100 to 1000 nM | AC50 [2, 5]: 1000 to 10000 nM | IC50 [2, 8]: 1000 to 10000 nM | IC50 [2, 9]: 1000 to 10000 nM | IC50 [3, 10]: 100 to 1000 nM | IC50 [4, 11]: 1000 to 10000 nM

COc1cc(-c2ccc(-c3ccc(N4CC[C@H](NC5(C)CCC5)C4)nn3)c(O)c2)cnn1 [Compound 289, (S)-5-(6-methoxypyridazin-4-yl)-2-(6-(3-((1-methylcyclobutyl)amino)pyrrolidin-1-yl)pyridazin-3-yl)phenol]
AC50 [1, 5]: 100 to 1000 nM | IC50 [1, 6]: < 100 nM | IC50 [1, 7]: < 100 nM | AC50 [2, 5]: 100 to 1000 nM | IC50 [2, 8]: 100 to 1000 nM | IC50 [2, 9]: 100 to 1000 nM | IC50 [3, 10]: < 100 nM | IC50 [4, 11]: < 100 nM

Cc1nsc(-c2cc(O)c(-c3ccc(N4CC[C@H](NCC5CC5)C4)nn3)cc2F)n1 [Compound 432]
AC50 [1, 5]: 100 to 1000 nM | IC50 [1, 6]: < 100 nM | IC50 [1, 7]: < 100 nM | AC50 [2, 5]: 100 to 1000 nM | IC50 [2, 8]: 1000 to 10000 nM | IC50 [2, 9]: 1000 to 10000 nM | IC50 [3, 10]: < 100 nM | IC50 [4, 11]: 100 to 1000 nM

COc1cc(-c2ccc(-c3ccc(N4CC(F)[C@@H](NC(C)(C)C)C4)nn3)c(O)c2)cnn1 (stereo in doubt) [Compound 217, 2-{6-[(3S,4R)-3-(tert-butylamino)-4-fluoropyrrolidin-1-yl]pyridazin-3-yl}-5-(6-methoxypyridazin-4-yl)phenol]
AC50 [1, 5]: 100 to 1000 nM | IC50 [1, 6]: 100 to 1000 nM | IC50 [1, 7]: 100 to 1000 nM | AC50 [2, 5]: 1000 to 10000 nM | IC50 [2, 8]: 100 to 1000 nM | IC50 [2, 9]: 100 to 1000 nM | IC50 [3, 10]: < 100 nM | IC50 [4, 11]: 100 to 1000 nM

Cc1ncc2cc(-c3ccc(N4CCC(NC(C)(C)C)C4)nn3)c(O)cc2n1 (centres unmarked) [Compound 818]
AC50 [1, 12]: > 10000 nM | IC50 [1, 13]: > 10000 nM | IC50 [1, 14]: > 10000 nM | AC50 [2, 12]: > 10000 nM | IC50 [2, 15]: > 10000 nM | IC50 [2, 16]: > 10000 nM | IC50 [3, 17]: > 10000 nM | IC50 [4, 18]: > 10000 nM

Cc1nc2c(F)cc(-c3ccc(-c4ccc(N5CCC(NC6CCC6)C5)nn4)c(O)c3)cc2o1 (centres unmarked) [Compound 326]
AC50 [1, 5]: 100 to 1000 nM | IC50 [1, 6]: < 100 nM | IC50 [1, 7]: < 100 nM | AC50 [2, 5]: 100 to 1000 nM | IC50 [2, 8]: 100 to 1000 nM | IC50 [2, 9]: 100 to 1000 nM | IC50 [3, 10]: < 100 nM | IC50 [4, 11]: 100 to 1000 nM

Oc1cc(-n2cnnc2)c(F)cc1-c1ccc(N2CCC(NC3CCC3)C2)nn1 (centres unmarked) [Compound 315]
AC50 [1, 5]: 1000 to 10000 nM | IC50 [1, 6]: 1000 to 10000 nM | IC50 [1, 7]: 1000 to 10000 nM | AC50 [2, 5]: > 10000 nM | IC50 [2, 8]: > 10000 nM | IC50 [2, 9]: > 10000 nM | IC50 [3, 10]: 1000 to 10000 nM | IC50 [4, 11]: > 10000 nM

Oc1cc(-c2cnc(C(F)F)s2)c(F)cc1-c1ccc(N2CCC(NC3CCC3)C2)nn1 (centres unmarked) [Compound 389]
AC50 [1, 5]: 1000 to 10000 nM | IC50 [1, 6]: 100 to 1000 nM | IC50 [1, 7]: 100 to 1000 nM | AC50 [2, 5]: 1000 to 10000 nM | IC50 [2, 8]: 1000 to 10000 nM | IC50 [2, 9]: 1000 to 10000 nM | IC50 [3, 10]: 100 to 1000 nM | IC50 [4, 11]: 1000 to 10000 nM

COc1cc(-c2ccc(-c3ccc(N4CC[C@](C)(NC5CCC5)C4)nn3)c(O)c2)ncn1 [Compound 365, 2-{6-[(3S)-3-(cyclobutylamino)-3-methylpyrrolidin-1-yl]pyridazin-3-yl}-5-(6-methoxypyrimidin-4-yl)phenol]
AC50 [1, 5]: < 100 nM | IC50 [1, 6]: < 100 nM | IC50 [1, 7]: < 100 nM | AC50 [2, 5]: 100 to 1000 nM | IC50 [2, 8]: 100 to 1000 nM | IC50 [2, 9]: 100 to 1000 nM | IC50 [3, 10]: < 100 nM | IC50 [4, 11]: < 100 nM

Oc1cc(-c2cn[nH]c2)c(F)cc1-c1ccc(N2CC[C@@H](NC3CCC3)C2)nn1 [Compound 115, 2-{6-[(3R)-3-(cyclobutylamino)pyrrolidin-1-yl]pyridazin-3-yl}-4-fluoro-5-(1H-pyrazol-4-yl)phenol]
AC50 [1, 5]: < 100 nM | IC50 [1, 6]: < 100 nM | IC50 [1, 7]: < 100 nM | AC50 [2, 5]: < 100 nM | IC50 [2, 8]: < 100 nM | IC50 [2, 9]: < 100 nM | IC50 [3, 10]: < 100 nM | IC50 [4, 11]: < 100 nM

COc1cc(-c2ccc(-c3ccc(N4CC[C@@H](CNC5CCC5)C4)nn3)c(O)c2)cnn1 [Compound 440, 2-{6-[(3S)-3-[(cyclobutylamino)methyl]pyrrolidin-1-yl]pyridazin-3-yl}-5-(6-methoxypyridazin-4-yl)phenol]
AC50 [1, 5]: 100 to 1000 nM | IC50 [1, 6]: < 100 nM | IC50 [1, 7]: < 100 nM | AC50 [2, 5]: 100 to 1000 nM | IC50 [2, 8]: 100 to 1000 nM | IC50 [2, 9]: 100 to 1000 nM | IC50 [3, 10]: < 100 nM | IC50 [4, 11]: 100 to 1000 nM

Cc1nc2cc(O)c(-c3ccc(N4CC[C@@H](NC(C)(C)C(C)C)C4)nn3)cc2o1 [Compound 874]
AC50 [1, 12]: < 100 nM | IC50 [1, 13]: < 100 nM | IC50 [1, 14]: < 100 nM | AC50 [2, 12]: 100 to 1000 nM | IC50 [2, 15]: 100 to 1000 nM | IC50 [2, 16]: 100 to 1000 nM | IC50 [3, 17]: < 100 nM | IC50 [4, 18]: 100 to 1000 nM

COc1cc(-c2ccc(-c3ccc(N4CC[C@H](NCC5CC5)C4)nn3)c(O)c2)ncn1 [Compound 381, 2-{6-[(3S)-3-[(cyclopropylmethyl)amino]pyrrolidin-1-yl]pyridazin-3-yl}-5-(6-methoxypyrimidin-4-yl)phenol]
AC50 [1, 5]: 100 to 1000 nM | IC50 [1, 6]: < 100 nM | IC50 [1, 7]: < 100 nM | AC50 [2, 5]: 100 to 1000 nM | IC50 [2, 8]: 100 to 1000 nM | IC50 [2, 9]: 100 to 1000 nM | IC50 [3, 10]: < 100 nM | IC50 [4, 11]: 100 to 1000 nM

Cc1nc2cc(O)c(-c3cnc(N4CC[C@@H](NC(C)(C)C)C4)nn3)cc2o1 [Compound 808]
AC50 [1, 12]: > 10000 nM | IC50 [1, 13]: 1000 to 10000 nM | IC50 [1, 14]: 1000 to 10000 nM | AC50 [2, 12]: > 10000 nM | IC50 [2, 15]: > 10000 nM | IC50 [2, 16]: > 10000 nM | IC50 [3, 17]: 1000 to 10000 nM | IC50 [4, 18]: > 10000 nM

Oc1cc(-n2cnnc2)ccc1-c1ccc(N2CCC(NC3CCC3)C2)nn1 (centres unmarked) [Compound 345]
AC50 [1, 5]: 1000 to 10000 nM | IC50 [1, 6]: 1000 to 10000 nM | IC50 [1, 7]: 1000 to 10000 nM | AC50 [2, 5]: 1000 to 10000 nM | IC50 [2, 8]: 1000 to 10000 nM | IC50 [2, 9]: 1000 to 10000 nM | IC50 [3, 10]: 100 to 1000 nM | IC50 [4, 11]: > 10000 nM

Cc1ncc(-c2cc(O)c(-c3ccc(N4CC[C@@H](N[C@@H](C)C5CC5)C4)nn3)cc2F)s1 [Compound 373]
AC50 [1, 5]: < 100 nM | IC50 [1, 6]: < 100 nM | IC50 [1, 7]: < 100 nM | AC50 [2, 5]: < 100 nM | IC50 [2, 8]: < 100 nM | IC50 [2, 9]: < 100 nM | IC50 [3, 10]: < 100 nM | IC50 [4, 11]: < 100 nM
